Some test systems named below: SN12C renal; SF-539 CNS; MALME-3M melanoma; HCC-2998 colon; HS 578T breast; HCT-116 colon; SNB-75 CNS; UO-31 renal; BT-549 breast; MDA-N; HT29 colon; NCI/ADR-RES ovarian.
What all share (test): NCI tumour cell line growth inhibition, 48 h

Several values for one entry are separate records, joined by “and”; a condition that tells them apart may be missing. Equal values may be shown once.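 All cell lines were grown in 96-well plates and treated with compound for 48 hours. At the GI50, growth is halved. TGI: total growth inhibition.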

TGI and GI50 data for eleven molecules are collected here from PubChem BioAssay (NCI).

As to `O=C1CC2(CCC(O)(c3ccc(Cl)cc3)C(C(=O)c3ccc(Cl)cc3)C2)C(=O)c2ccccc2N1` (configuration not stated), the TGI is 24.8 µM with SN12C renal; 11.2 µM in the assay on SF-539 CNS; more than 68.4 µM in the assay with MALME-3M melanoma; more than 100 µM with HCC-2998 colon; 7.44 µM with HS 578T breast; more than 100 µM in the assay with HCT-116 colon. Also, the TGI was 3.82 µM with SNB-75 CNS; 49.9 µM in the assay with UO-31 renal; 49.9 µM in the assay with BT-549 breast; 98.1 µM with MDA-N; more than 50 µM in the assay with HT29 colon; more than 44.5 µM with NCI/ADR-RES ovarian.
Regarding `O=[N+]([O-])C(=C(N1CCOCC1)N1CCOCC1)/C(Cl)=C(\Cl)[N+](=O)[O-]`, the TGI in the assay on SN12C renal came out at 5.92 µM; with SF-539 CNS it was 23.8 µM; in the assay on MALME-3M melanoma, 3.24 µM; in the assay with HCC-2998 colon, 39.6 µM; in the assay with HS 578T breast it was 16.6 µM; in the assay on HCT-116 colon, 4.28 µM. In addition, the TGI in the assay on SNB-75 CNS was found to be 34.5 µM; in the assay on UO-31 renal, 18 µM; with BT-549 breast, 13.3 µM; in the assay with MDA-N, 25.1 µM; with HT29 colon, 8.26 µM; with NCI/ADR-RES ovarian, 54.2 µM.
For `O=S1(=O)CCN(Cc2ccccc2)/C1=N\S(=O)(=O)c1ccc(Cl)cc1`, the TGI was determined as 33.3 µM in the assay with SN12C renal; 36.1 µM in the assay on SF-539 CNS; 34.5 µM in the assay on HCC-2998 colon; 73.8 µM with HS 578T breast; 33 µM with HCT-116 colon; 50.9 µM with SNB-75 CNS. For the same molecule, the TGI is 32.5 µM in the assay with UO-31 renal; 31.1 µM with BT-549 breast; 32.2 µM in the assay with MDA-N; 32.6 µM with HT29 colon; 35.8 µM in the assay on NCI/ADR-RES ovarian.
Take `CN(C)CCO/N=C1/C=C2CC[C@H]3[C@@H]4CC[C@H](O)[C@@]4(C)CC[C@@H]3[C@@]2(C)CC1`: the TGI was 32.8 µM in the assay with SN12C renal; 13.2 µM in the assay on SF-539 CNS; 28.1 µM in the assay with HCC-2998 colon; 54.1 µM in the assay with HS 578T breast; 31.5 µM in the assay with HCT-116 colon; 10.4 µM in the assay with SNB-75 CNS. The TGI came to 28.2 µM with UO-31 renal; 8.27 µM in the assay on BT-549 breast; 11.2 µM in the assay on MDA-N; 5.53 µM in the assay with HT29 colon; 17.1 µM in the assay on NCI/ADR-RES ovarian.
As for `Cn1c2nc3ccccc3c-2cc2ccccc21`, the GI50 is 3.14 µM and 6.46 µM in the assay with SN12C renal; 2.86 µM and 18.5 µM in the assay on MALME-3M melanoma; 4.54 µM and 17.7 µM in the assay on HS 578T breast; 1.8 µM and 4.57 µM with HCT-116 colon; 3.22 µM and 13.4 µM in the assay on SNB-75 CNS; 2.6 µM and 5.47 µM in the assay on UO-31 renal. Besides, the GI50 in the assay on MDA-N was 4.27 µM and 10.4 µM; in the assay on NCI/ADR-RES ovarian, 2.76 µM and 12.1 µM. The TGI in the assay on SN12C renal was 36.3 µM and 34.9 µM; in the assay with SF-539 CNS it was 16 µM and 17.5 µM; in the assay on MALME-3M melanoma it was 12.8 µM and > 100 µM; with HCC-2998 colon it was 17.6 µM; with HS 578T breast it was 16.4 µM and 61.3 µM; in the assay on HCT-116 colon, more than 100 µM. The TGI with SNB-75 CNS is 12.7 µM and 39.1 µM; in the assay with UO-31 renal, 11.6 µM and 37.7 µM; in the assay on BT-549 breast it was 9.09 µM; with MDA-N, 30.1 µM and 23.1 µM; in the assay on HT29 colon it was 18.3 µM and 31.4 µM; with NCI/ADR-RES ovarian it was 20.2 µM and > 100 µM.
Regarding `CC(=O)Nc1ccc2c(C)c3c4ccccc4n(C)c3nc2n1`, the TGI with SN12C renal was 43.3 µM; in the assay on SF-539 CNS, 77.6 µM; in the assay on HCC-2998 colon, 30.9 µM; in the assay on HS 578T breast, 50.2 µM; in the assay on HCT-116 colon, 44.6 µM; in the assay on SNB-75 CNS it was more than 100 µM. The TGI in the assay on UO-31 renal is 32.3 µM; in the assay on BT-549 breast, 84.8 µM; in the assay on MDA-N, 34.5 µM; in the assay on HT29 colon it was more than 100 µM; in the assay on NCI/ADR-RES ovarian, more than 100 µM.
Consider `COc1ccc(OC)c2nc3c(C(=O)NCCN(C)C)cccc3nc12`, for which the TGI was more than 36.1 µM in the assay on SN12C renal; 20 µM in the assay with SF-539 CNS; 27.3 µM in the assay on MALME-3M melanoma; 13.4 µM in the assay on HCC-2998 colon; 29.6 µM with HS 578T breast; 20.6 µM in the assay on HCT-116 colon. The TGI is 32.4 µM in the assay on SNB-75 CNS; more than 84.7 µM in the assay with UO-31 renal; 33 µM in the assay on BT-549 breast; 16 µM in the assay on MDA-N; more than 44.3 µM in the assay on HT29 colon; more than 61.1 µM with NCI/ADR-RES ovarian.
Consider `[N-]=[N+]=Nc1ccc2c(c1)Sc1ccccc1N2CCCCCl`, for which the TGI with SN12C renal, in the assay with SF-539 CNS, with MALME-3M melanoma, in the assay on HCC-2998 colon, in the assay on HS 578T breast and with HCT-116 colon was more than 100 µM throughout. The TGI in the assay on SNB-75 CNS, with UO-31 renal, with BT-549 breast, in the assay with MDA-N, in the assay on HT29 colon and in the assay with NCI/ADR-RES ovarian was more than 100 µM each time.
Turning to `Cc1ccccc1N(C)S(=O)(=O)c1ccccc1[N+](=O)[O-]`, the TGI in the assay with SN12C renal, in the assay with SF-539 CNS, in the assay with MALME-3M melanoma, with HCC-2998 colon, in the assay on HS 578T breast and in the assay on HCT-116 colon was more than 100 µM in each case. Besides, the TGI in the assay with SNB-75 CNS, with UO-31 renal, with BT-549 breast, in the assay on MDA-N, in the assay on HT29 colon and in the assay with NCI/ADR-RES ovarian was more than 100 µM throughout.
For `CCOC(=O)n1cncc1CC(NC(=O)Cc1c(C(=O)C=C(C)C)[nH]c2ccccc12)C(=O)OC` (configuration not stated), the TGI is 39.5 µM in the assay with SN12C renal; 46.2 µM in the assay with SF-539 CNS; 32.8 µM in the assay on MALME-3M melanoma; 32.2 µM in the assay on HCC-2998 colon; 65.9 µM with HS 578T breast; more than 100 µM in the assay on HCT-116 colon. Also, the TGI is 49.7 µM in the assay with SNB-75 CNS; 32.3 µM with UO-31 renal; 37.3 µM in the assay with BT-549 breast; 84.3 µM in the assay with MDA-N; 66.6 µM with HT29 colon; more than 100 µM in the assay on NCI/ADR-RES ovarian.
On to `CC(=O)OC1COC(n2c(N)c(C#N)c(C)c(C#N)c2=S)C(OC(C)=O)C1OC(C)=O` (configuration not stated), for which the TGI with SN12C renal, in the assay on SF-539 CNS, with MALME-3M melanoma, in the assay with HCC-2998 colon, with HS 578T breast and with SNB-75 CNS was more than 100 µM in each case. The TGI with UO-31 renal, in the assay on BT-549 breast, with MDA-N, in the assay on HT29 colon and with NCI/ADR-RES ovarian was more than 100 µM in each case. In addition, the GI50 in the assay on HS 578T breast is > 100 µM and 38.3 µM.
